System: SEM cells
Experiment: cell viability relative to DMSO control; higher = less cytotoxic
Conditions: 48 h
Summary of the method: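 Viability is expressed as a percentage of DMSO wells within each plate, and cell-free wells serve as background. Seeding densities in the 1536-well plates (5 μl) were 500 cells/well for NOMO1 or SEM leukemia cells and 1000 cells/well for P12-Ichikawa. Each line was adapted for at least four passages in each medium. Library compounds in DMSO were pin-dosed at 47 μM to 0.79 nM (11 points, threefold), and CellTiter-Glo One luminescence was read after 48 h at 37°C.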

[1] = HPLM + 10% dialyzed FBS, 0.000781 µM
[2] = HPLM + 10% dialyzed FBS, 0.00234 µM
[3] = HPLM + 10% dialyzed FBS, 0.00702 µM
[4] = HPLM + 10% dialyzed FBS, 0.0211 µM
[5] = HPLM + 10% dialyzed FBS, 0.0632 µM
[6] = HPLM + 10% dialyzed FBS, 0.19 µM
[7] = HPLM + 10% dialyzed FBS, 0.569 µM
[8] = HPLM + 10% dialyzed FBS, 1.71 µM
[9] = HPLM + 10% dialyzed FBS, 5.12 µM
[10] = HPLM + 10% dialyzed FBS, 15.4 µM
[11] = HPLM + 10% dialyzed FBS, 46.1 µM
[12] = RPMI 5 mM glucose + 10% FBS, 0.000781 µM
[13] = RPMI 5 mM glucose + 10% FBS, 0.00234 µM
[14] = RPMI 5 mM glucose + 10% FBS, 0.00702 µM
[15] = RPMI 5 mM glucose + 10% FBS, 0.0211 µM
[16] = RPMI 5 mM glucose + 10% FBS, 0.0632 µM
[17] = RPMI 5 mM glucose + 10% FBS, 0.19 µM
[18] = RPMI 5 mM glucose + 10% FBS, 0.569 µM
[19] = RPMI 5 mM glucose + 10% FBS, 1.71 µM
[20] = RPMI 5 mM glucose + 10% FBS, 5.12 µM
[21] = RPMI 5 mM glucose + 10% FBS, 15.4 µM
[22] = RPMI 5 mM glucose + 10% FBS, 46.1 µM
[23] = RPMI 5 mM glucose + 10% dialyzed FBS, 0.000781 µM
[24] = RPMI 5 mM glucose + 10% dialyzed FBS, 0.00234 µM
[25] = RPMI 5 mM glucose + 10% dialyzed FBS, 0.00702 µM
[26] = RPMI 5 mM glucose + 10% dialyzed FBS, 0.0211 µM
[27] = RPMI 5 mM glucose + 10% dialyzed FBS, 0.0632 µM
[28] = RPMI 5 mM glucose + 10% dialyzed FBS, 0.19 µM
[29] = RPMI 5 mM glucose + 10% dialyzed FBS, 0.569 µM
[30] = RPMI 5 mM glucose + 10% dialyzed FBS, 1.71 µM
[31] = RPMI 5 mM glucose + 10% dialyzed FBS, 5.12 µM
[32] = RPMI 5 mM glucose + 10% dialyzed FBS, 15.4 µM
[33] = RPMI 5 mM glucose + 10% dialyzed FBS, 46.1 µM

Structure (SMILES)	cell viability [1] [%]	cell viability [2] [%]	cell viability [3] [%]	cell viability [4] [%]	cell viability [5] [%]	cell viability [6] [%]	cell viability [7] [%]	cell viability [8] [%]	cell viability [9] [%]	cell viability [10] [%]	cell viability [11] [%]	cell viability [12] [%]	cell viability [13] [%]	cell viability [14] [%]	cell viability [15] [%]	cell viability [16] [%]	cell viability [17] [%]	cell viability [18] [%]	cell viability [19] [%]	cell viability [20] [%]	cell viability [21] [%]	cell viability [22] [%]	cell viability [23] [%]	cell viability [24] [%]	cell viability [25] [%]	cell viability [26] [%]	cell viability [27] [%]	cell viability [28] [%]	cell viability [29] [%]	cell viability [30] [%]	cell viability [31] [%]	cell viability [32] [%]	cell viability [33] [%]
Cn1c(=O)c2[nH]cnc2n(C)c1=O	102	112	107	109	108	110	98.6	117	105	110	102	104	107	110	98.1	98.2	103	99.7	94.8	110	99	97.2	98.8	126	102	115	124	113	106	114	105	124	104
CCN1\C=C(C(O)=O)/C(=O)C2=C1C=C(N3CCN(C)CC3)C(=C2)F	107	112	98.6	117	104	115	129	105	109	110	96.7	108	112	128	116	107	120	105	117	108	107	103	107	114	108	107	95.6	108	106	83.6	106	109	91.8
COC1=CC(=CC=C1)C2=CC=C(NC(=O)/C3=C(/CCC3)C(O)=O)C(=C2)F	103	109	116	108	122	108	119	107	104	104	76.6	92.5	108	112	116	127	120	121	118	107	111	42.8	95.6	115	109	113	103	109	105	111	111	78.2	30.9
O=C1CCC[C@@H]2[C@H]3CCC[N+]4([O-])CCC[C@@H](CN12)[C@@H]34 (stereo partly specified)	61.8	68.2	84.1	86.2	96.2	94	89.4	92.1	71.9	27.1	78.6	84.7	87.4	93.9	94.7	89.1	101	96.6	99.5	71.5	18.8	86.8	89.7	68.5	82.2	97.9	85.4	96.6	102	81.4	91.1	24	88.7
C[C@H](NC(=O)Cc1cc(F)cc(F)c1)C(=O)N[C@@H]1C(=O)N(C)c2ccccc2-c2ccccc21	84.8	106	103	77.7	102	102	110	106	35.4	3.3	2.09	94.2	101	88.5	80.6	107	103	98.1	16	4.52	3.08	1.53	107	103	100	79.4	112	109	113	105	5.44	3.49	2.01
COc1ccc(C(=O)CC(=O)c2ccc(C(C)(C)C)cc2)cc1	70.8	73.2	75.9	66.4	69.1	78.2	75.8	76.1	80.8	93.5	68.3	100	94.4	101	93	99	88	98.5	95.1	110	106	89.9	91.7	96.1	101	105	100	104	117	92	111	90.8	115
C/C(=C\c1csc(C)n1)[C@@H]1C[C@@H]2O[C@@H]2CCC[C@H](C)[C@H](O)[C@@H](C)C(=O)C(C)(C)[C@@H](O)CC(=O)O1	26.5	21.4	22.1	22.7	19.9	20.3	23.7	21.5	19.1	20.8	20.7	14.8	18.4	16.2	16	16.4	16.4	16.2	13.4	16.1	16.3	13.4	32.1	17.1	19.3	16.8	15.6	17.7	19.6	15.2	18.7	21.8	19.2

Reference: the supplement of paper PMC11451515
